Like-named read-outs stand apart in the source and are kept apart here.
How the values were obtained:
[1] = system: human hepatoma cell SMMC-7721; test: Cell proliferation (MTT) assay, SMMC-7721; assay type: cell-based; conditions: read-out: IC50 SMMC-7721
Experimental: (§1) The antiproliferative activities evaluation was conducted by using a modified procedure as described in the literature. Briefly, target tumour cells were grown to log phase in RPMI 1640 medium supplemented with 10% fetal bovine serum. After diluting to 3 × 10^4 cells mL^−1 with the complete medium, 100 µL of the obtained cell suspension was added to each well of 96-well culture plates. The subsequent incubation was performed at 37 °C, 5% CO2 atmosphere for 24 h before subjecting to antiproliferation assessment. The tested samples at pre-set concentrations were added to six wells with Doxorubicin (AMD) co-assayed as a positive reference. After 48 h of exposure period, 25 µL of PBS containing 2.5 mg·mL^−1 of MTT was added to each well. After 4 h, the medium was replaced by 150 µL DMSO to dissolve the purple formazan crystals produced. The absorbance at 570 nm of each well was measured using an ELISA plate reader. The data represented the mean of three experiments in triplicate and were expressed as means ± SD using Student’s test.

[2] = system: human gastric cancer cells MGC-803; test: Cell proliferation (MTT) assay, MGC-803; assay type: cell-based; conditions: antiproliferative, MTT, 48 h exposure; read-out: IC50 MGC-803
Experimental: as §1

[3] = system: human breast cancer cell MDA-MB-231; test: Cell proliferation (MTT) assay, MDA-MB-231; assay type: cell-based
Experimental: as §1

human melanoma cell A375 = test: Cell proliferation (MTT) assay, A375; assay type: cell-based
Experimental: as §1

telomerase = molecular target: T1, telomerase (Homo sapiens, UniProt O14746); test: Telomerase activity TRAP-PCR-ELISA assay (A375 cell extract); assay type: biochemical; conditions: IC50 inhibitory activity against telomerase, TRAP-PCR-ELISA, A375 cells, 24 h treatment
T1 construct: endogenous in cells; host or cells: A375 human melanoma cells
Experimental: Thirty-six compounds were tested in a search for inhibitors of telomerase activity using the TRAP-PCR-ELISA assay. In detail, the A375 cells were firstly maintained in RPMI 1640 buffer (Hyclone, Miami, FL), supplemented with 10% fetal bovineserum (GIBCO, New York, NY), streptomycin (0.1 mg/mL) and penicillin (100 IU/mL) at 37 °C in a humidified atmosphere containing 5% CO2. After trypsinisation, 5 × 10^4 cultured cells in logarithmic growth were seeded into T25 flasks (Corning, New York, NY) and cultured to allow to adherence. […] After 24 h treatment, the cells were harvested by cell scraper orderly followed by washing once with PBS. The cells were lysed in 150 µL RIPA cell lysis buffer (Santa Cruz, Santa Cruz, CA), and incubated on ice for 30 min. The cellular supernatants were obtained via centrifugation at 12,000g for 20 min at 4 °C and stored at –80 °C. The TRAP-PCR-ELISA assay was performed using a telomerase detection kit (Roche, Basel, Switzerland) according to the manufacturer’s protocol. In brief, 2 µL of cell extracts were mixed with 48 µL TRAP reaction mixtures. TRAP primers and Taq polymerase are incubated at 25 °C for 30 min. PCR was then initiated at 94 °C, 120 s for predenaturation and performed using 35 cycles each consisting of 94 °C for 30 s, 50 °C for 30 s, 72 °C for 90 s. Then 20 µL of PCR products were hybridised to a digoxigenin (DIG)-labelled telomeric repeat specific detection probe. And the PCR products were immobilised via the biotin-labelled primer to a streptavidin-coated microtiter plate subsequently. The immobilised DNA fragments were detected with a peroxidase-conjugated anti-DIG antibody and visualised following the addition of the stop regent. The microtitre plate was assessed on TECAN Infinite M200 microplate reader (Mannedorf, Switzerland) at a wavelength of 490 nm, and the final value were presented as mean ± SD[23].

[4] = antiproliferative, MTT, 48 h exposure
[5] = antiproliferative, MTT, 48 h exposure, read-out: IC50 MDA-MB-231
[6] = antiproliferative, MTT, 48 h exposure, read-out: IC50 A375
[7] = Homo sapiens, MDA-MB-231, 48 h, read-out: IC50 MDA-MB-231, antiproliferative, MTT, 48 h exposure
[8] = Homo sapiens, A-375, 48 h, read-out: IC50 A375, antiproliferative, MTT, 48 h exposure
[9] = read-out: IC50 A375, antiproliferative, MTT, 48 h exposure

T1 sequence (O14746 whole entry): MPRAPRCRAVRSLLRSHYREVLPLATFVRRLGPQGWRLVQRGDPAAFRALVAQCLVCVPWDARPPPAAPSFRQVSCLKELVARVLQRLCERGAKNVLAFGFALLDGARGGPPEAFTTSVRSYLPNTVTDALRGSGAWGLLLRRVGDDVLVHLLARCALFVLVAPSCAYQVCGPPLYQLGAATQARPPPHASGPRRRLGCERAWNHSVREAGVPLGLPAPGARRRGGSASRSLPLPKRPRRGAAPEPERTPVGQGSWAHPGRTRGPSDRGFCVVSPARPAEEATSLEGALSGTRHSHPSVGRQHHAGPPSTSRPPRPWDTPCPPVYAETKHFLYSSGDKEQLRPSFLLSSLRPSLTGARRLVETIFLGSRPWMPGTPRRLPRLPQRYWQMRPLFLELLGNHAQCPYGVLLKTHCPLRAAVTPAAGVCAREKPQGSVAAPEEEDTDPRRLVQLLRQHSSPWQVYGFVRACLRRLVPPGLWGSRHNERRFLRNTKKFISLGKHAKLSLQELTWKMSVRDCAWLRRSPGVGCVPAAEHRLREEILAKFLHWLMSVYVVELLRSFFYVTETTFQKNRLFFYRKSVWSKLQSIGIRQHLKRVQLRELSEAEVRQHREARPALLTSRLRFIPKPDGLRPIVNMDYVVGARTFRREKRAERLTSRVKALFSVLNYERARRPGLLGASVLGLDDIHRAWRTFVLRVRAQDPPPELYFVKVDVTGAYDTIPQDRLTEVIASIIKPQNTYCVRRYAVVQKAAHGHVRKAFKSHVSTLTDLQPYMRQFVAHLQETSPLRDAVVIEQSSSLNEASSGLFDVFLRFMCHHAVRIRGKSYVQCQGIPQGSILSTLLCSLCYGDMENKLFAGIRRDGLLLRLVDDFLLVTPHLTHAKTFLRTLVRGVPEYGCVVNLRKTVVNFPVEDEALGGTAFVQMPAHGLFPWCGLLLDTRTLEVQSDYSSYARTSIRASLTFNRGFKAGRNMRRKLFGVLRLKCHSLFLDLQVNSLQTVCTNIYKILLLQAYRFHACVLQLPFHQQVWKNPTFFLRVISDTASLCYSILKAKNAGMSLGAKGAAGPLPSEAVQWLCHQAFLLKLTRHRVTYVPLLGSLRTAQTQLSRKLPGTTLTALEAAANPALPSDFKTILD

Compound: CCc1ccc(/C=C/S(=O)(=O)F)cc1 [Compound 2]
- IC50 [1, 4]: 28.5 ± 1.47 µM
- IC50 [2]: 28.6 ± 1.27 µM
- IC50 [3, 5]: 58.6 ± 1.78 µM
- IC50 (human melanoma cell A375; [6]): 22.8 ± 0.71 µM

Compound: O=S(=O)(F)/C=C/c1ccc(Oc2ccccc2)cc1 [Compound 3]
- IC50 [3, 5]: 31.8 ± 1.44 µM
- IC50 (human melanoma cell A375; [6]): 27 ± 0.82 µM

Compound: COc1ccc(/C=C/S(=O)(=O)F)cc1 [Compound 4]
- IC50 [1, 4]: 73.8 ± 1.7 µM
- IC50 [3, 5]: 24.7 ± 2.15 µM
- IC50 (human melanoma cell A375; [6]): 16.9 ± 1.22 µM

Compound: O=S(=O)(F)/C=C/c1ccc(OC(F)(F)F)cc1 [Compound 9]
- IC50 [1, 4]: 9.04 ± 0.99 µM
- IC50 [2]: 38.6 ± 1.22 µM
- IC50 [3, 5]: 36.5 ± 2.56 µM
- IC50 (human melanoma cell A375; [6]): 24.1 ± 0.99 µM

Compound: O=S(=O)(F)/C=C/c1ccc(C(F)(F)F)cc1 [Compound 10]
- IC50 [1, 4]: 40.1 ± 1.66 µM
- IC50 [2]: 24.9 ± 0.82 µM
- IC50 [3, 5]: 29.8 ± 2.31 µM
- IC50 (human melanoma cell A375; [6]): 5.43 ± 0.4 µM

Compound: CC(=O)c1ccc(/C=C/S(=O)(=O)F)cc1 [Compound 11]
- IC50 [1, 4]: 65.8 ± 1.79 µM
- IC50 [3, 5]: 5.66 ± 0.28 µM
- IC50 (human melanoma cell A375; [6]): 10.6 ± 0.9 µM

Compound: O=[N+]([O-])c1ccc(/C=C/S(=O)(=O)F)cc1 [Compound 12]
- IC50 [3, 7]: 4.25 ± 0.32 µM
- IC50 (human melanoma cell A375; [8]): ~3 µM
- IC50 (human melanoma cell A375; [9]): 3.58 ± 0.11 µM
- IC50 (telomerase): 2.77 ± 0.58 µM

Compound: N#Cc1ccc(/C=C/S(=O)(=O)F)cc1 [Compound 13]
- IC50 (telomerase): 39 ± 1.29 µM

Compound: CCOC(=O)c1ccc(/C=C/S(=O)(=O)F)cc1 [Compound 14]
- IC50 [1, 4]: 27 ± 1.01 µM
- IC50 [3, 5]: 3.6 ± 0.3 µM
- IC50 (human melanoma cell A375; [6]): 50 ± 1.78 µM

Compound: COc1cccc(/C=C/S(=O)(=O)F)c1 [Compound 16]
- IC50 [1, 4]: 45.6 ± 1.29 µM
- IC50 [3, 5]: 28.5 ± 1.78 µM
- IC50 (human melanoma cell A375; [6]): 21.1 ± 0.87 µM

Compound: Cc1cccc(/C=C/S(=O)(=O)F)c1 [Compound 17]
- IC50 [3, 7]: 10.6 ± 0.91 µM
- IC50 (human melanoma cell A375; [8]): 12.1 ± 1.19 µM
- IC50 (telomerase): 10.1 ± 1.13 µM

Compound: O=S(=O)(F)/C=C/c1cccc(F)c1 [Compound 18]
- IC50 ([1]; Homo sapiens, SMMC-7721, 48 h): 24.8 ± 1.58 µM
- IC50 [3, 7]: 5.24 ± 0.4 µM
- IC50 (human melanoma cell A375; [8]): ~3 µM
- IC50 (human melanoma cell A375; [9]): 3.82 ± 0.31 µM
- IC50 (telomerase): 1.09 ± 0.11 µM

Compound: O=S(=O)(F)/C=C/c1cccc(Br)c1 [Compound 19]
- IC50 [3, 5]: 12.1 ± 1.52 µM
- IC50 (human melanoma cell A375; [6]): 20.1 ± 0.9 µM

Compound: O=S(=O)(F)/C=C/c1cccc(C(F)(F)F)c1 [Compound 20]
- IC50 ([1]; Homo sapiens, SMMC-7721, 48 h): 20 ± 1.74 µM
- IC50 [3, 7]: 3.18 ± 0.2 µM
- IC50 (human melanoma cell A375; [8]): 10.4 ± 0.82 µM
- IC50 (telomerase): 4.17 ± 0.39 µM

Compound: O=[N+]([O-])c1cccc(/C=C/S(=O)(=O)F)c1 [Compound 22]
- IC50 ([1]; Homo sapiens, SMMC-7721, 48 h): 26.1 ± 0.73 µM
- IC50 [3, 7]: 6.54 ± 0.74 µM
- IC50 (human melanoma cell A375; [8]): 4.14 ± 0.21 µM
- IC50 (telomerase): 2.25 ± 0.3 µM

Compound: COc1ccccc1/C=C/S(=O)(=O)F [Compound 23]
- IC50 [3, 5]: 33.8 ± 2.89 µM
- IC50 (human melanoma cell A375; [6]): 25.3 ± 1.33 µM

Compound: Cc1ccccc1/C=C/S(=O)(=O)F [Compound 24]
- IC50 [1, 4]: 52.8 ± 1.44 µM
- IC50 [3, 5]: 41.8 ± 2.97 µM
- IC50 (human melanoma cell A375; [6]): 24.5 ± 1.55 µM

Compound: Cc1ccc(/C=C/S(=O)(=O)F)c(C)c1 [Compound 27]
- IC50 [1, 4]: 50.7 ± 1.82 µM
- IC50 [3, 5]: 39.8 ± 2.55 µM
- IC50 (human melanoma cell A375; [6]): 7.83 ± 0.4 µM

Compound: Cc1cc(C)cc(/C=C/S(=O)(=O)F)c1 [Compound 28]
- IC50 [1, 4]: 16.7 ± 0.65 µM
- IC50 [3, 5]: 20.6 ± 2.11 µM
- IC50 (human melanoma cell A375; [6]): 10.2 ± 0.75 µM

Compound: Cc1cc(/C=C/S(=O)(=O)F)ccc1Br [Compound 29]
- IC50 [3, 5]: 16.9 ± 0.87 µM
- IC50 (human melanoma cell A375; [6]): 14.3 ± 0.91 µM

Compound: O=S(=O)(F)/C=C/c1cccc2ccccc12 [Compound 30]
- IC50 [1, 4]: 2.29 ± 0.17 µM
- IC50 [3, 5]: 25.1 ± 0.99 µM
- IC50 (human melanoma cell A375; [6]): 28 ± 1.31 µM

Compound: O=S(=O)(F)/C=C/c1ccc(F)cc1F [Compound 32]
- IC50 [1, 4]: 27 ± 0.9 µM
- IC50 [3, 5]: 16.1 ± 0.41 µM
- IC50 (human melanoma cell A375; [6]): 12.3 ± 0.41 µM

Compound: O=S(=O)(F)/C=C/c1ccc(O)cc1 [Compound 33]
- IC50 [1, 4]: 26.2 ± 0.39 µM
- IC50 [2]: 35.9 ± 0.79 µM
- IC50 [3, 5]: 19 ± 0.65 µM
- IC50 (human melanoma cell A375; [6]): 4.96 ± 0.51 µM

Compound: O=S(=O)(F)/C=C/c1cccc(O)c1 [Compound 34]
- IC50 [1, 4]: 23 ± 0.45 µM
- IC50 [3, 5]: 23.4 ± 0.88 µM
- IC50 (human melanoma cell A375; [6]): 5.37 ± 0.6 µM

Compound: O=S(=O)(F)/C=C/c1ccccc1O [Compound 35]
- IC50 [1, 4]: 36.5 ± 0.7 µM
- IC50 [3, 5]: 7.41 ± 0.33 µM
- IC50 (human melanoma cell A375; [6]): 7.41 ± 0.77 µM

Compound: O=S(=O)(F)/C=C/c1cc(O)cc(O)c1 [Compound 36]
- IC50 ([1]; Homo sapiens, SMMC-7721, 48 h): 29 ± 0.78 µM
- IC50 [3, 7]: 37.2 ± 1.4 µM
- IC50 (human melanoma cell A375; [8]): 4.01 ± 0.68 µM
- IC50 (telomerase): 1.44 ± 0.22 µM

Reference: article PMC6116703, “Ethenesulfonyl fluoride derivatives as telomerase inhibitors: structure-based design, SAR, and anticancer evaluation in vitro” (Journal of Enzyme Inhibition and Medicinal Chemistry, 2018)
